Results as given in PubChem BioAssay (NCI).
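Compound exposure: 48 hours, 5 concentrations, 96-well plates. TGI: concentration producing complete growth inhibition.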

Key:
Experiment in all cases: growth of human tumour cells (NCI), 48 h
OVCAR-8 ovarian = test system: OVCAR-8 ovarian
PC-3 prostate = test system: PC-3 prostate
MOLT-4 leukemia = test system: MOLT-4 leukemia
CCRF-CEM leukemia = test system: CCRF-CEM leukemia
OVCAR-4 ovarian = test system: OVCAR-4 ovarian
RXF 393 renal = test system: RXF 393 renal
DU-145 prostate = test system: DU-145 prostate
NCI-H522 lung = test system: NCI-H522 lung
OVCAR-3 ovarian = test system: OVCAR-3 ovarian
MCF7 breast = test system: MCF7 breast
U251 CNS = test system: U251 CNS
NCI-H460 lung = test system: NCI-H460 lung
HOP-92 NSCLC = test system: HOP-92 NSCLC
HT29 colon = test system: HT29 colon
SR leukemia = test system: SR leukemia
T-47D breast = test system: T-47D breast
TK-10 renal = test system: TK-10 renal
RPMI-8226 leukemia = test system: RPMI-8226 leukemia
HCC-2998 colon = test system: HCC-2998 colon
SK-MEL-28 melanoma = test system: SK-MEL-28 melanoma
ACHN renal = test system: ACHN renal
MDA-N = test system: MDA-N
SNB-19 CNS = test system: SNB-19 CNS
OVCAR-5 ovarian = test system: OVCAR-5 ovarian
UACC-62 melanoma = test system: UACC-62 melanoma
NCI-H226 lung = test system: NCI-H226 lung
IGROV1 ovarian = test system: IGROV1 ovarian
SF-295 CNS = test system: SF-295 CNS
HCT-15 colon = test system: HCT-15 colon
BT-549 breast = test system: BT-549 breast
NCI-H23 lung = test system: NCI-H23 lung
LOX IMVI melanoma = test system: LOX IMVI melanoma
CAKI-1 renal = test system: CAKI-1 renal
HL-60(TB) leukemia = test system: HL-60(TB) leukemia
SN12C renal = test system: SN12C renal
HS 578T breast = test system: HS 578T breast
A549 NSCLC = test system: A549 NSCLC
SF-268 CNS = test system: SF-268 CNS
MALME-3M melanoma = test system: MALME-3M melanoma
SK-OV-3 ovarian = test system: SK-OV-3 ovarian
MDA-MB-435 = test system: MDA-MB-435
A498 renal = test system: A498 renal
UO-31 renal = test system: UO-31 renal
HCT-116 colon = test system: HCT-116 colon
EKVX NSCLC = test system: EKVX NSCLC
UACC-257 melanoma = test system: UACC-257 melanoma
SNB-75 CNS = test system: SNB-75 CNS
K-562 leukemia = test system: K-562 leukemia
COLO 205 colon = test system: COLO 205 colon
HOP-62 NSCLC = test system: HOP-62 NSCLC
KM12 colon = test system: KM12 colon
M14 melanoma = test system: M14 melanoma
SF-539 CNS = test system: SF-539 CNS
NCI/ADR-RES ovarian = test system: NCI/ADR-RES ovarian
786-0 renal = test system: 786-0 renal
MDA-MB-231 breast = test system: MDA-MB-231 breast
SK-MEL-5 melanoma = test system: SK-MEL-5 melanoma
SK-MEL-2 melanoma = test system: SK-MEL-2 melanoma
DMS 114 small cell lung = test system: DMS 114 small cell lung
M19-MEL melanoma = test system: M19-MEL melanoma
LXFL 529 NSCLC = test system: LXFL 529 NSCLC
SNB-78 CNS = test system: SNB-78 CNS
KM20L2 colon = test system: KM20L2 colon
SW-620 colon = test system: SW-620 colon

Question: Which results are given for `CCOC(=O)c1cc(-n2nnc3ccccc32)cn1C`?
Answer: TGI (OVCAR-8 ovarian): > 10 µM; TGI (PC-3 prostate): > 10 µM; TGI (MOLT-4 leukemia): > 10 µM; TGI (CCRF-CEM leukemia): > 10 µM; TGI (OVCAR-4 ovarian): > 10 µM; TGI (RXF 393 renal): > 10 µM; TGI (DU-145 prostate): > 10 µM; TGI (NCI-H522 lung): > 10 µM; TGI (OVCAR-3 ovarian): > 10 µM; TGI (MCF7 breast): > 10 µM; TGI (U251 CNS): > 10 µM; TGI (NCI-H460 lung): > 10 µM; TGI (HOP-92 NSCLC): > 10 µM; TGI (HT29 colon): > 10 µM; TGI (SR leukemia): > 10 µM; TGI (T-47D breast): > 10 µM; TGI (TK-10 renal): > 10 µM; TGI (RPMI-8226 leukemia): > 10 µM; TGI (HCC-2998 colon): > 10 µM; TGI (SK-MEL-28 melanoma): > 10 µM; TGI (ACHN renal): > 10 µM; TGI (MDA-N): > 10 µM; TGI (SNB-19 CNS): > 10 µM; TGI (OVCAR-5 ovarian): > 10 µM; TGI (UACC-62 melanoma): > 10 µM; TGI (NCI-H226 lung): > 10 µM; TGI (IGROV1 ovarian): > 10 µM; TGI (SF-295 CNS): > 10 µM; TGI (HCT-15 colon): > 10 µM; TGI (BT-549 breast): > 10 µM; TGI (NCI-H23 lung): > 10 µM; TGI (LOX IMVI melanoma): > 10 µM; TGI (CAKI-1 renal): > 10 µM; TGI (HL-60(TB) leukemia): > 10 µM; TGI (SN12C renal): > 10 µM; TGI (HS 578T breast): > 10 µM; TGI (A549 NSCLC): > 10 µM; TGI (SF-268 CNS): > 10 µM; TGI (MALME-3M melanoma): > 10 µM; TGI (SK-OV-3 ovarian): > 10 µM; TGI (MDA-MB-435): > 10 µM; TGI (A498 renal): > 10 µM; TGI (UO-31 renal): > 10 µM; TGI (HCT-116 colon): > 10 µM; TGI (EKVX NSCLC): > 10 µM; TGI (UACC-257 melanoma): > 10 µM; TGI (SNB-75 CNS): > 10 µM; TGI (K-562 leukemia): > 10 µM; TGI (COLO 205 colon): > 10 µM; TGI (HOP-62 NSCLC): > 10 µM; TGI (KM12 colon): > 10 µM; TGI (M14 melanoma): > 10 µM; TGI (SF-539 CNS): > 10 µM; TGI (NCI/ADR-RES ovarian): > 10 µM; TGI (786-0 renal): > 10 µM; TGI (MDA-MB-231 breast): > 10 µM; TGI (SK-MEL-5 melanoma): > 10 µM; TGI (SK-MEL-2 melanoma): > 10 µM

Question: For `COc1cc2c(cc1OC)C1C(=O)c3c(O)cc4c(c3OC1CO2)C=CC(C)(C)O4` (stereo not given), which TGI (DMS 114 small cell lung) is on record?
Answer: Its TGI is 25.7 µM.

Question: What about the TGI (NCI-H522 lung) of the same compound?
Answer: Its TGI is 5.45 µM.

Question: What about the TGI (OVCAR-3 ovarian) of the same compound?
Answer: Its TGI is 65.5 µM.

Question: And the TGI (U251 CNS)?
Answer: The TGI was 93.2 µM.

Question: And the TGI (NCI-H460 lung)?
Answer: The TGI was 93.1 µM.

Question: What about the TGI (HOP-92 NSCLC) of the same compound?
Answer: Its TGI is 74.5 µM.

Question: And the TGI (HT29 colon)?
Answer: The TGI was over 100 µM.

Question: What about the TGI (SR leukemia) of the same compound?
Answer: The TGI was over 100 µM.

Question: What about the TGI (TK-10 renal) of the same compound?
Answer: The TGI was over 100 µM.

Question: And the TGI (SK-MEL-28 melanoma)?
Answer: The TGI was over 100 µM.

Question: And the TGI (ACHN renal)?
Answer: Its TGI is over 100 µM.

Question: What about the TGI (OVCAR-5 ovarian) of the same compound?
Answer: The TGI was over 100 µM.

Question: And the TGI (UACC-62 melanoma)?
Answer: The TGI was 52.3 µM.

Question: And the TGI (IGROV1 ovarian)?
Answer: The TGI was over 100 µM.

Question: What about the TGI (M19-MEL melanoma) of the same compound?
Answer: The TGI was 61.4 µM.

Question: And the TGI (HCT-15 colon)?
Answer: The TGI was over 100 µM.

Question: What about the TGI (LXFL 529 NSCLC) of the same compound?
Answer: The TGI was 94 µM.

Question: What about the TGI (LOX IMVI melanoma) of the same compound?
Answer: The TGI was 38.8 µM.

Question: And the TGI (SNB-78 CNS)?
Answer: The TGI was over 100 µM.

Question: What about the TGI (CAKI-1 renal) of the same compound?
Answer: The TGI was over 100 µM.

Question: What about the TGI (SN12C renal) of the same compound?
Answer: Its TGI is over 100 µM.

Question: And the TGI (KM20L2 colon)?
Answer: The TGI was 89.5 µM.

Question: And the TGI (A549 NSCLC)?
Answer: Its TGI is over 100 µM.

Question: What about the TGI (SF-268 CNS) of the same compound?
Answer: The TGI was over 100 µM.

Question: And the TGI (MALME-3M melanoma)?
Answer: Its TGI is 72.9 µM.

Question: What about the TGI (SW-620 colon) of the same compound?
Answer: Its TGI is over 100 µM.

Question: What about the TGI (SK-OV-3 ovarian) of the same compound?
Answer: Its TGI is over 100 µM.

Question: What about the TGI (A498 renal) of the same compound?
Answer: Its TGI is over 100 µM.

Question: And the TGI (UO-31 renal)?
Answer: Its TGI is 59.2 µM.

Question: What about the TGI (HCT-116 colon) of the same compound?
Answer: Its TGI is 70.6 µM.

Question: And the TGI (SNB-75 CNS)?
Answer: Its TGI is 96.4 µM.

Question: And the TGI (HOP-62 NSCLC)?
Answer: The TGI was 55.6 µM.

Question: And the TGI (KM12 colon)?
Answer: Its TGI is 68.3 µM.

Question: What about the TGI (M14 melanoma) of the same compound?
Answer: The TGI was 76.3 µM.

Question: What about the TGI (SF-539 CNS) of the same compound?
Answer: Its TGI is over 100 µM.

Question: What about the TGI (SK-MEL-5 melanoma) of the same compound?
Answer: Its TGI is 25.3 µM.

Question: And the TGI (SK-MEL-2 melanoma)?
Answer: Its TGI is 50.7 µM.
